Source: ChEMBL document CHEMBL5550154, “Novel biaryloxazolidinone derivatives with broad-spectrum antibacterial activity, favorable drug-like profiles and in vivo efficacy against linezolid-resistant Staphylococcusaureus” (Eur J Med Chem, 2024)
pIC50: −log10 of the molar value. ≈ marks a conversion by molar mass, not a printed value. Calls of active or inactive are those of the source. No cut-off for these calls is given here.

What was measured:
[1] = test system: Staphylococcus aureus; experiment: Antibacterial activity against methicillin-resistant Staphylococcus aureus assessed as inhibition of bacterial growth; assay type: functional
[2] = test system: Staphylococcus aureus; experiment: Antibacterial activity against methicillin-sensitive Staphylococcus aureus assessed as inhibition of bacterial growth; assay type: functional
[3] = target: T1, Amine oxidase [flavin-containing] B (Homo sapiens, UniProt P27338); experiment: Inhibition of MAO-B (unknown origin) preincubated with compound for 15 mins followed by substrate addition and measured after 60 mins by luminescence based microplate reader analysis; assay type: toxicity
T1 sequence (P27338 whole entry): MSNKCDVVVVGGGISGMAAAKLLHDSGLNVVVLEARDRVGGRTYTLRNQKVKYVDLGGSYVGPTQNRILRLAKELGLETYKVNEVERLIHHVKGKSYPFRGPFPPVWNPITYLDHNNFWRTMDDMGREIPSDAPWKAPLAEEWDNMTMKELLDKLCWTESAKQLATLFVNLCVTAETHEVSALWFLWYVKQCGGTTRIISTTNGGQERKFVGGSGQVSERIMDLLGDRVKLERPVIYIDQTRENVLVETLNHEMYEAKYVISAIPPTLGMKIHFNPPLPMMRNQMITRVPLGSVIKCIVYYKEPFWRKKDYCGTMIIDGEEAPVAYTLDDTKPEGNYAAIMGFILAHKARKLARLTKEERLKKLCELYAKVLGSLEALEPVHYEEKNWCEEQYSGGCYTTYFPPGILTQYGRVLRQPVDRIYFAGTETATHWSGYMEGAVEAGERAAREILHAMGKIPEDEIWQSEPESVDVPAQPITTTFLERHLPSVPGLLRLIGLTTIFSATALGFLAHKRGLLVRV

[4] = test system: Staphylococcus aureus; experiment: Antibacterial activity against Linezolid-resistant Staphylococcus aureus infected in systemic infection IG dosed SPF-kunming mouse model assessed as survival rate measured every day for 7 days; assay type: functional, organism-based; details: dose 2.5-40 mg/kg, time 7.0 day
[5] = test system: Staphylococcus aureus; experiment: Antibacterial activity against Linezolid-resistant Staphylococcus aureus infected in systemic infection SPF-kunming mouse model assessed as survival rate at 2.5 mg/kg, IG measured every day for 7 days; assay type: functional; details: po, 168 h, time 7 day
[6] = test system: Staphylococcus aureus; experiment: Antibacterial activity against Linezolid-resistant Staphylococcus aureus infected in systemic infection SPF-kunming mouse model assessed as survival rate at 40 mg/kg, IG measured every day for 7 days; assay type: functional; details: po, 168 h, time 7 day
[7] = test system: Staphylococcus aureus; experiment: Antibacterial activity against Linezolid-resistant Staphylococcus aureus infected in systemic infection SPF-kunming mouse model assessed as survival rate at 10 to 40 mg/kg, IG measured 3 days after infection; assay type: functional, organism-based; details: dose 10-40 mg/kg
[8] = Stability in simulated gastric acid assessed as compound remaining at pH 1.3 measured at 2 hrs; assay type: ADME; details: read-out: Stability

Q: With `CC(=O)NC[C@H]1CN(c2ccc(N3CCOCC3)c(F)c2)C(=O)O1` [LINEZOLID] as the compound, how does the MIC [1] read?
A: The MIC was 1 µg/mL (≈ 2.96 µM).

Q: And the MIC [2]?
A: Its MIC is 1 µg/mL (≈ 2.96 µM).

Q: With `O=C1O[C@@H](CO)CN1c1ccc(-c2ccc(/C=N/N3CCOCC3)nc2)c(F)c1` as the compound, how does the pIC50 [3] read?
A: Its pIC50 is 4.46.

Q: What about the Activity [4] of the same compound?
A: The Activity was “Dose-Dependent Effect”.

Q: And the survival at 2.5 mg/kg [5]?
A: Its survival at 2.5 mg/kg is 0%.

Q: What about the survival at 40 mg/kg [6] of the same compound?
A: Its survival at 40 mg/kg is 100%.

Q: With `O=C1O[C@@H](CO)CN1c1ccc(-c2ccc(/C=N/N3CCCCC3)nc2)c(F)c1` as the compound, how does the Activity [7] read?
A: The Activity was “inactive”.

Q: For `CC(C)N/N=C/c1ccc(-c2ccc(N3C[C@H](CO)OC3=O)cc2F)cn1`, which remaining at 2 h [8] is on record?
A: The remaining at 2 h was 87.1%.
